Experimental data published in patent US20080119515A1, “Heterocyclic Kinase Inhibitors: Methods of Use and Synthesis” (priority 2003, published 2008).

target: T1, ZAP-70 (Homo sapiens, UniProt P43403); assay: DELFIA assay (ZAP-70 kinase, phosphorylation of biotinylated poly(glu,tyr)); format: biochemical; details: ZAP-70 DELFIA, class symbols; read-out: Activity (IC50 in vitro)
T1 sequence (P43403 1-619): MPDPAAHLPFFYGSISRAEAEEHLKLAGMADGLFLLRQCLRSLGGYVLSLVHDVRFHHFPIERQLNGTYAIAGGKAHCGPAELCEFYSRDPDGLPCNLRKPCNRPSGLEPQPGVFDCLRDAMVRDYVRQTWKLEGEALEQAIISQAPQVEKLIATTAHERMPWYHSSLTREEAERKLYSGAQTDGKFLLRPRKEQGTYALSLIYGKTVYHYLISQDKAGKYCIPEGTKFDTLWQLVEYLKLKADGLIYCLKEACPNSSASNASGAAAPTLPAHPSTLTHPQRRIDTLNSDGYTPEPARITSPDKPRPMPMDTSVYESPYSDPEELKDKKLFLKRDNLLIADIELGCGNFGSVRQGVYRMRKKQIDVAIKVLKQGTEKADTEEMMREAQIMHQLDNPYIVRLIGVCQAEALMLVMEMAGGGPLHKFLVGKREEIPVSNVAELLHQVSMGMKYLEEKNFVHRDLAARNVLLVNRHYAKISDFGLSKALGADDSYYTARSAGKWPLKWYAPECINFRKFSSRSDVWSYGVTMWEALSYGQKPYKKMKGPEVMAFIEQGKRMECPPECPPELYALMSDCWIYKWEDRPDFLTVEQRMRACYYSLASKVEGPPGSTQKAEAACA
Procedure, shortened: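 3.1 nM ZAP-70 pre-incubated 10 min at room temperature with compound ([…]) and 62.5 nM biotinylated poly(glu,tyr) in 62.5 mM Mops pH 7.0, 12.5 mM MgCl2, 12.5% glycerol, 6.25% DMSO (pre-incubation concentrations); ATP added from 5 mM stock, 30 min reaction, EDTA stop. Phosphorylation read by DELFIA europium anti-phosphotyrosine fluorescence (340/615).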

SMILES	IC50 [nM]
O=C(NCc1ccc(C(F)(F)F)cc1)c1cc(C(=O)N2CCC[C@H]2CN2CCCC2)c2cc(-c3ccc4c(c3)OCO4)ccc2n1 [Compound 139]	1000 to 10000
N#Cc1ccc(-c2ccc3nc(N[C@@H]4CCc5ccccc54)cc(C(=O)N4CCC[C@H]4CN4CCCC4)c3c2)cc1 [Compound 182]	> 10000
O=C(c1cc(NC2Cc3ccccc3C2)nc2ccc(-c3ccc4c(c3)OCO4)cc12)N1CCC[C@H]1CN1CCCC1 [Compound 29]	1000 to 10000
c1cc(N2CCNCC2)ccc1Nc1cc(Nc2ccc(N3CCNCC3)cc2)c2cc(-c3ccc4c(c3)OCO4)ccc2n1 [Compound 449]	< 1000
O=C(c1cc(NCc2ccc(C(F)(F)F)cc2)nc2ccc(C#Cc3cccc(C(F)(F)F)c3)cc12)N1CCC[C@H]1CN1CCCC1 [Compound 284]	< 1000
O=C(c1cc(NCc2ccc(C(F)(F)F)cc2)nc2ccc(-c3ccccc3F)cc12)N1CCC[C@H]1CN1CCCC1 [Compound 308]	1000 to 10000
Cc1cc(CNc2cc(C(=O)N3CCC[C@H]3CN3CCCC3)c3cc(-c4ccc(C#N)cc4)ccc3n2)ccc1F [Compound 225]	> 10000
O=C(c1cc(Cc2ccc(N3CCC4(CCNC4)CC3)cc2)nc2ccc(-c3ccc4c(c3)OCO4)cc12)N1CCCC1CN1CCCC1 (centres unmarked) [Compound 446]	< 1000
O=C(c1cc(OCc2ccc(C(F)(F)F)cc2)nc2ccc(-c3ccc4c(c3)OCO4)cc12)N1CCC[C@H]1CN1CCCC1 [Compound 98]	< 1000
N#Cc1csc2ccc(-c3ccc4nc(NCc5ccc(C(F)(F)F)cc5)cc(C(=O)N5CCC[C@H]5CN5CCCC5)c4c3)cc12 [Compound 351]	< 1000
O=C(c1cc(CCc2ccc(F)cc2)nc2ccc(-c3ccc4c(c3)OCO4)cc12)N1CCC[C@H]1CN1CCCC1 [Compound 135]	1000 to 10000
O=C(c1cc(SCc2ccc(Cl)cc2)nc2ccc(-c3ccc4c(c3)OCO4)cc12)N1CCC[C@H]1CN1CCCC1 [Compound 326]	< 1000
N#Cc1ccc(-c2ccc3nc(NCCc4ccc(F)cc4)cc(C(=O)N4CCC[C@H]4CN4CCCC4)c3c2)cc1 [Compound 192]	> 10000
O=C(c1cc(Cc2ccc(N3CCC4(CCNCC4)CC3)cc2)nc2ccc(-c3ccc4c(c3)OCO4)cc12)N1CCCC1CN1CCCC1 (centres unmarked) [Compound 447]	< 1000
O=C(c1cc(N[C@@H]2CCc3ccccc32)nc2ccc(-c3ccc4c(c3)OCO4)cc12)N1CCC[C@H]1CN1CCCC1 [Compound 42]	1000 to 10000
O=C(c1cc(NCc2ccc(C(F)(F)F)cc2)nc2ccc(-c3ccc(C(F)(F)F)cc3)cc12)N1CCC[C@H]1CN1CCCC1 [Compound 296]	1000 to 10000
N#Cc1cccc(-c2ccc3nc(-c4cccc(C#N)c4)cc(C(=O)N4CCC[C@H]4CN4CCCC4)c3c2)c1 [Compound 96]	1000 to 10000
O=C(c1cc(Cc2ccccc2)nc2ccc(-c3ccc4c(c3)OCO4)cc12)N1CCC[C@H]1CN1CCCC1 [Compound 25]	< 1000
O=C(c1cc(Cl)nc2ccccc12)N1CCC[C@H]1CN1CCCC1 [Compound 3]	> 10000
O=C(c1cc(NCc2cccc(F)c2)nc2ccc(-c3ccc4c(c3)OCO4)cc12)N1CCC[C@H]1CN1CCCC1 [Compound 31]	< 1000
C[C@H]1CCN(C(=O)c2cc(NCc3ccc(Cl)cc3)nc3ccc(-c4ccc5c(c4)OCO5)cc23)[C@@H]1CN1CCCC1 [Compound 148]	1000 to 10000
C[C@H](Nc1cc(C(=O)N2CCC[C@H]2CN2CCCC2)c2cc(-c3ccc(C#N)cc3)ccc2n1)[C@H](O)c1ccccc1 [Compound 317]	< 1000
O=C(c1cc(NCc2ccc(C(F)(F)F)cc2)nc2cc(-c3ccc(Cl)c(Cl)c3)ccc12)N1CCC[C@H]1CN1CCCC1 [Compound 122]	1000 to 10000
O=C(c1cc(NCc2ccc(C(F)(F)F)cc2)nc2ccc(-c3cccc(OC(F)(F)F)c3)cc12)N1CCC[C@H]1CN1CCCC1 [Compound 310]	< 1000
O=C(c1cc(NCc2ccc(Cl)cc2)nc2ccc(-c3ccc4c(c3)OCO4)cc12)N1CCCC[C@H]1CN1CCCC1 [Compound 376]	1000 to 10000
O=C(c1cc(CCc2ccccc2)nc(CCc2ccccc2)c1)N1CCC[C@H]1CN1CCCC1 [Compound 274]	> 10000
